Data reported in patent publication US12023345B2, “Compositions and methods for treating lysosomal disorders” (RUSH UNIVERSITY MEDICAL CENTER, priority 2014, dated 2024).

Tests used:
Assay type in all cases: cell-based
[1] = system: TPP1; test: TPP1 protein by Western blot in primary mouse astrocytes
Method: 12(A) Cells were treated with different concentrations of aspirin for 24 h under serum-free condition followed by Western blot for TPP1. 12(B) Cells were treated with 5 μM aspirin for different time periods under serum-free condition followed by Western blot for TPP1. Actin was run as a house keeping molecule. 12(C) Cells were treated with different concentrations of aspirin for 24 h under serum-free condition followed by TPP1 activity assay using cell extract containing 5 μg of total protein and Ala-Ala-Phe 7-amido-4-methylcoumarin as substrate. Results represent three independent experiments.
Immunoblotting: Western blotting was conducted as described earlier (31, 32) with modifications. Briefly, cells were scraped in 1× RIPA buffer, protein was measured using Bradford reagent and sodium dodecyl sulfate (SDS) buffer was added and electrophoresed on NuPAGE® Novex® 4-12% Bis-Tris gels (Invitrogen) and proteins transferred onto a nitrocellulose membrane (Bio-Rad) using the Thermo-Pierce Fast Semi-Dry Blotter.

[2] = system: Tfeb promoter (pTFEB-Luc); test: Tfeb promoter-driven luciferase reporter activity in mouse primary astrocytes; details: p(WT)Tfeb-Luc, different doses of aspirin, 4 h
Text: Construction of Mouse Tfeb Promoter-driven Reporter Construct: Mouse genomic DNA isolated from primary mouse astrocytes was used as the template during PCR. The 5′ flanking sequence of the mouse TFEB (−916/+61) gene was isolated by PCR. Primers were designed from gene bank sequences. Tfeb: sense: 5′- acgcgt CCAGGAGCCAGGGACGGGGTACATCTC -3′ (SEQ ID NO.: 11); antisense: 5′- agatct AAGGAGAAACTGAGTCCGGGCAGAAGG -3′ (SEQ ID NO.: 12). The sense primer was tagged with an Mlu1 restriction enzyme site while the antisense primer was tagged with Bgl II. The PCR was performed using an Advantage-2 PCR kit (Clontech) according to the manufacturer's instruction. The resulting fragments were gel purified and ligated into the PGEM-TEasy vector (Promega). These fragments were further subcloned into the PGL-3 Enhancer vector after digestion with corresponding restriction enzymes and verification by sequencing ACGT Inc. DNA Sequencing Services. […]
Assay of Tfeb Promoter-driven Reporter Activity: Cells plated at 50-60% confluence in 12-well plates were cotransfected with 0.25 μg of pTFEB(WT)-Luc, pTFEB(Mu)-Luc and using Lipofectamine Plus (Invitrogen). […] Firefly luciferase activities were analyzed in cell extracts using the Luciferase Assay System kit (Promega) in a TD-20/20 Luminometer (Turner Designs) as described earlier (33, 34).

[3] = system: Tfeb; test: TFEB mRNA by semi-quantitative RT-PCR in mouse primary astrocytes; details: different concentrations, 5 hr, serum-free
Method: Semi-Quantitative Reverse Transcriptase-Coupled Polymerase Chain Reaction (RT-PCR): Total RNA was isolated from mouse primary astrocytes and human primary astrocytes using RNA-Easy Qiagen (Valencia, CA) kit following manufactures protocol. Semi-quantitative RTPCR was carried out as described earlier (28) using oligo (dT) 12-18 as primer and moloney murine leukemia virus reverse transcriptase (MMLV-RT, Invitrogen) in a 20 μl reaction mixture. The resulting cDNA was appropriately amplified using Promega Master Mix (Madison, WI) and the following primers (Invitrogen) for murine genes: […]
Amplified products were electrophoresed on 2% agarose (Invitrogen) gels and visualized by ethidium bromide (Invitrogen) staining. Glyceraldehyde-3-phosphate dehydrogenase (Gapdh) mRNA was used as a loading control to ascertain that an equivalent amount of cDNA was synthesized from each sample.
Mouse primary astrocytes were incubated with different concentrations (see FIG. 9) of simvastatin and pravastatin (A), (B), cinnamic acid (C), and sodium phenylbutyrate and sodium benzoate (D) for 5 hr. under serum-free condition followed by monitoring the mRNA expression of TFEB by semi-quantitative RT-PCR. Sodium formate (D) was used as a negative control for sodium phenylbutyrate and sodium benzoate.

`CC(=O)Oc1ccccc1C(=O)O` [aspirin] was tested, and the “earliest time at which increase in TPP1 protein was evident” value ([1]; 5 μM aspirin) was 2 h, the “time of maximum increase in TPP1 protein” value ([1]; 5 μM aspirin) was 12 h and the “TPP1 protein (Western blot), dose” value ([1]; aspirin 2 and 5 μM, 24 h) was “increase in TPP1 protein”. For the same molecule, the “Tfeb promoter driven luciferase activity” value [2] was “induced Tfeb promoter driven luciferase activity” and the “TFEB mRNA expression (semi-quantitative RT-PCR)” value [3] was “upregulation of TFEB mRNA expression”.
